Reference: ChEMBL document CHEMBL4257548, “Phenothiazine antioxidants increase mitochondrial biogenesis and frataxin levels in Friedreich's ataxia cells” (Medchemcomm, 2018)
Activity calls are given as the source filed them. No cut-off for these calls is given here.

What was measured:
[1] = test system: GM15850; experiment: Effect on mitochondrial membrane potential in human GM15850 cells assessed as intact mitochondrial membrane at 0.25 uM after 16 hrs by JC1 staining based flow cytometry (reference value: 87%); type: functional
[2] = test system: GM16216; experiment: Increase in ATP production in human GM16216 cells at 0.1 uM after 24 hrs by Vialight reagent based luminescence assay; type: functional, cell-based
[3] = test system: GM16216; experiment: Effect on mitochondrial membrane potential in human GM16216 cells assessed as loss of mitochondrial membrane potential at 0.25 uM after 16 hrs by JC1 staining based flow cytometry (reference value: 13%); type: functional
[4] = test system: GM16216; experiment: Effect on mitochondrial membrane potential in human GM16216 cells assessed as intact mitochondrial membrane at 0.25 uM after 16 hrs by JC1 staining based flow cytometry (reference value: 87%); type: functional
[5] = test system: GM16216; experiment: Cytotoxicity against human GM16216 cells at 0.25 to 2.5 uM after 24 to 48 hrs by live/dead staining-based flow cytometry; type: cell-based; conditions: gm16216, 2.5 µM
[6] = test system: GM16216; experiment: Effect on ATP production in human GM16216 cells at 0.5 uM after 24 hrs by Vialight reagent based luminescence assay; type: functional, cell-based
[7] = test system: GM16216; experiment: Inhibition of ATP production in human GM16216 cells at 2.5 uM after 24 hrs by Vialight reagent based luminescence assay; type: functional, cell-based
[8] = test system: GM15850; experiment: Effect on ATP production in human GM15850 cells at 0.5 uM after 24 hrs by Vialight reagent based luminescence assay; type: functional, cell-based
[9] = test system: GM15850; experiment: Induction of mitochondrial biogenesis in human GM15850 cells assessed as increase in ratio of COX1 to SDH-A protein levels at 50 to 250 nM after 24 to 48 hrs by ELISA; type: functional, cell-based
[10] = test system: GM16216; experiment: Increase in frataxin expression in human GM16216 cells at 50 to 250 nM after 24 to 48 hrs by ELISA; type: functional, cell-based
[11] = test system: GM15850; experiment: Inhibition of ATP production in human GM15850 cells at 2.5 uM after 24 hrs by Vialight reagent based luminescence assay; type: functional, cell-based
[12] = test system: GM15850; experiment: Cytotoxicity against human GM15850 cells at 0.25 to 2.5 uM after 24 to 48 hrs by live/dead staining-based flow cytometry; type: cell-based; conditions: gm15850, 2.5 µM
[13] = test system: GM15850; experiment: Increase in ATP production in human GM15850 cells at 0.1 uM after 24 hrs by Vialight reagent based luminescence assay; type: functional, cell-based
[14] = test system: GM15850; experiment: Increase in frataxin expression in human GM15850 cells at 50 to 250 nM after 24 to 48 hrs by ELISA; type: functional, cell-based
[15] = test system: GM16216; experiment: Cytoprotection against DEM-induced toxicity in human GM16216 cells assessed as increase in cell viability pretreated for 16 hrs followed by DEM addition and measured after 5 hrs by live/dead staining based flow cytometry; type: functional
[16] = test system: GM15850; experiment: Effect on mitochondrial membrane potential in human GM15850 cells assessed as loss of mitochondrial membrane potential at 0.25 uM after 16 hrs by JC1 staining based flow cytometry (reference value: 13%); type: functional
[17] = test system: GM15850; experiment: Cytoprotection against DEM-induced toxicity in human GM15850 cells assessed as increase in cell viability pretreated for 16 hrs followed by DEM addition and measured after 5 hrs by live/dead staining based flow cytometry; type: functional
[18] = test system: GM16216; experiment: Induction of mitochondrial biogenesis in human GM16216 cells assessed as increase in ratio of COX1 to SDH-A protein levels at 50 to 250 nM after 24 to 48 hrs by ELISA; type: functional, cell-based
[19] = test system: GM15850; experiment: Restoration of total aconitase activity in human GM15850 cells after 5 days by colorimetric method; type: functional, cell-based
[20] = test system: GM16216; experiment: Induction of mitochondrial biogenesis in human GM16216 cells assessed as ratio of COX1 to SDH-A protein levels at 250 after 24 hrs by ELISA relative to control; type: functional
[21] = test system: GM15850; experiment: Effect on frataxin expression in human GM15850 cells at 250 nM after 24 hrs by ELISA relative to control; type: functional
[22] = test system: GM15850; experiment: Induction of mitochondrial biogenesis in human GM15850 cells assessed as ratio of COX1 to SDH-A protein levels at 50 after 48 hrs by ELISA relative to control; type: functional
[23] = test system: GM16216; experiment: Restoration of total aconitase activity in human GM16216 cells at 250 nM after 5 days by colorimetric method relative to control; type: functional
[24] = test system: GM16216; experiment: Increase in ATP production in human GM16216 cells at 0.1 to 0.5 uM after 24 hrs by Vialight reagent based luminescence assay; type: functional, cell-based
[25] = test system: GM16216; experiment: Effect on frataxin expression in human GM16216 cells at 50 nM after 24 hrs by ELISA relative to control; type: functional
[26] = test system: GM16216; experiment: Effect on frataxin expression in human GM16216 cells at 250 nM after 48 hrs by ELISA relative to control; type: functional
[27] = test system: GM16216; experiment: Effect on frataxin expression in human GM16216 cells at 50 nM after 48 hrs by ELISA relative to control; type: functional
[28] = test system: GM15850; experiment: Induction of mitochondrial biogenesis in human GM15850 cells assessed as ratio of COX1 to SDH-A protein levels at 250 after 48 hrs by ELISA relative to control; type: functional
[29] = test system: GM16216; experiment: Restoration of total aconitase activity in human GM16216 cells at 50 nM after 5 days by colorimetric method relative to control; type: functional
[30] = test system: GM15850; experiment: Effect on frataxin expression in human GM15850 cells at 50 nM after 48 hrs by ELISA relative to control; type: functional
[31] = test system: GM15850; experiment: Induction of mitochondrial biogenesis in human GM15850 cells assessed as ratio of COX1 to SDH-A protein levels at 250 after 24 hrs by ELISA relative to control; type: functional
[32] = test system: GM16216; experiment: Induction of mitochondrial biogenesis in human GM16216 cells assessed as ratio of COX1 to SDH-A protein levels at 50 after 24 hrs by ELISA relative to control; type: functional
[33] = test system: GM16216; experiment: Induction of mitochondrial biogenesis in human GM16216 cells assessed as ratio of COX1 to SDH-A protein levels at 50 after 48 hrs by ELISA relative to control; type: functional
[34] = test system: GM15850; experiment: Effect on frataxin expression in human GM15850 cells at 50 nM after 24 hrs by ELISA relative to control; type: functional
[35] = test system: GM15850; experiment: Induction of mitochondrial biogenesis in human GM15850 cells assessed as ratio of COX1 to SDH-A protein levels at 50 after 24 hrs by ELISA relative to control; type: functional
[36] = test system: GM16216; experiment: Induction of mitochondrial biogenesis in human GM16216 cells assessed as ratio of COX1 to SDH-A protein levels at 250 after 48 hrs by ELISA relative to control; type: functional
[37] = test system: GM15850; experiment: Restoration of total aconitase activity in human GM15850 cells at 50 nM after 5 days by colorimetric method relative to control; type: functional
[38] = test system: GM16216; experiment: Effect on frataxin expression in human GM16216 cells at 250 nM after 24 hrs by ELISA relative to control; type: functional
[39] = test system: GM15850; experiment: Effect on frataxin expression in human GM15850 cells at 250 nM after 48 hrs by ELISA relative to control; type: functional
[40] = test system: GM15850; experiment: Increase in ATP production in human GM15850 cells at 0.1 to 0.5 uM after 24 hrs by Vialight reagent based luminescence assay; type: functional, cell-based
[41] = test system: GM15850; experiment: Restoration of total aconitase activity in human GM15850 cells at 250 nM after 5 days by colorimetric method relative to control; type: functional
[42] = test system: GM16216; experiment: Cytotoxicity against human GM16216 cells at 2.5 uM after 48 hrs by live/dead staining-based flow cytometry; type: cell-based; conditions: gm16216, 48 h
[43] = test system: GM16216; experiment: Inhibition of ATP production in human GM16216 cells after 24 hrs by Vialight reagent based luminescence assay; type: functional, cell-based
[44] = test system: GM15850; experiment: Cytotoxicity against human GM15850 cells at 2.5 uM after 48 hrs by live/dead staining-based flow cytometry; type: cell-based; conditions: gm15850, 48 h
[45] = test system: GM15850; experiment: Effect on ATP production in human GM15850 cells at 0.1 uM after 24 hrs by Vialight reagent based luminescence assay; type: functional, cell-based
[46] = test system: GM15850; experiment: Inhibition of ATP production in human GM15850 cells after 24 hrs by Vialight reagent based luminescence assay; type: functional, cell-based
[47] = test system: GM16216; experiment: Effect on ATP production in human GM16216 cells at 0.1 uM after 24 hrs by Vialight reagent based luminescence assay; type: functional, cell-based
[48] = test system: GM16216; experiment: Effect on ATP production in human GM16216 cells at 0.1 to 0.5 uM after 24 hrs by Vialight reagent based luminescence assay; type: functional, cell-based
[49] = test system: GM15850; experiment: Effect on ATP production in human GM15850 cells at 0.1 to 0.5 uM after 24 hrs by Vialight reagent based luminescence assay; type: functional, cell-based

## CCCCCCCCCCCc1cc2nc3ccc(N(C)C)cc3sc-2cc1=O
[1]
  Activity: 86%
[2]
  Activity: Active
[3]
  Activity: 14%
[4]
  Activity: 86%
[5]
  Activity: Non-Toxic
[6]
  Activity: inactive
[7]
  inhibition: Active
[8]
  Activity: inactive
[9]
  Activity: Active
[10]
  Activity: Active
[11]
  inhibition: Active
[12]
  Activity: Non-Toxic
[13]
  Activity: Active
[14]
  Activity: Active
[15]
  Activity: Dose-dependent effect
[16]
  Activity: 14%
[17]
  Activity: Dose-dependent effect
[18]
  Activity: Active

## CCCCCCCCCCCCCCCCc1cc2nc3ccc(N(C)C)cc3sc-2cc1=O
[1]
  Activity: 88%
[3]
  Activity: 12%
[19]
  Activity: Dose-dependent effect
[20]
  Activity: 132%
[21]
  Activity: 127%
[22]
  Activity: 132%
[4]
  Activity: 88%
[23]
  Activity: 124%
[5]
  Activity: Non-Toxic
[24]
  Activity: Active
[7]
  inhibition: Active
[25]
  Activity: 120%
[26]
  Activity: 131%
[9]
  Activity: Active
[10]
  Activity: Active
[27]
  Activity: 124%
[28]
  Activity: 139%
[29]
  Activity: 121%
[30]
  Activity: 124%
[31]
  Activity: 132%
[32]
  Activity: 127%
[11]
  inhibition: Active
[33]
  Activity: 132%
[34]
  Activity: 120%
[12]
  Activity: Non-Toxic
[14]
  Activity: Active
[35]
  Activity: 127%
[36]
  Activity: 139%
[15]
  Activity: Dose-dependent effect
[37]
  Activity: 121%
[38]
  Activity: 127%
[39]
  Activity: 131%
[16]
  Activity: 12%
[17]
  Activity: Dose-dependent effect
[40]
  Activity: Active
[41]
  Activity: 124%
[18]
  Activity: Active

## CCCCCc1cc2nc3ccc(N(C)C)cc3sc-2cc1=O
[42]
  Activity: Toxic
[1]
  Activity: 84%
[43]
  inhibition: Dose-dependent effect
[3]
  Activity: 16%
[4]
  Activity: 84%
[44]
  Activity: Toxic
[45]
  Activity: inactive
[46]
  inhibition: Dose-dependent effect
[47]
  Activity: inactive
[15]
  Activity: Dose-dependent effect
[16]
  Activity: 16%
[17]
  Activity: Dose-dependent effect

## CCCCCCCCCCCCCc1cc2nc3ccc(N(C)C)cc3sc-2cc1=O
[1]
  Activity: 87%
[3]
  Activity: 13%
[4]
  Activity: 87%
[5]
  Activity: Non-Toxic
[7]
  inhibition: Active
[9]
  Activity: Active
[10]
  Activity: Active
[11]
  inhibition: Active
[12]
  Activity: Non-Toxic
[14]
  Activity: Active
[48]
  Activity: inactive
[16]
  Activity: 13%
[49]
  Activity: inactive
[18]
  Activity: Active
